Assay results from article PMC11137182, “Selective and brain-penetrant ACSS2 inhibitors target breast cancer brain metastatic cells” (Frontiers in Pharmacology, 2024).

How the values were obtained:
hACSS1 = target: T1, hACSS1 (Homo sapiens, UniProt Q9NUB1); experiment: SPR binding to immobilized hACSS1; details: single concentration 25μM injection
T1 construct: purchased MyBioSource (www.mybiosource.com)
T1 sequence (Q9NUB1 38-689): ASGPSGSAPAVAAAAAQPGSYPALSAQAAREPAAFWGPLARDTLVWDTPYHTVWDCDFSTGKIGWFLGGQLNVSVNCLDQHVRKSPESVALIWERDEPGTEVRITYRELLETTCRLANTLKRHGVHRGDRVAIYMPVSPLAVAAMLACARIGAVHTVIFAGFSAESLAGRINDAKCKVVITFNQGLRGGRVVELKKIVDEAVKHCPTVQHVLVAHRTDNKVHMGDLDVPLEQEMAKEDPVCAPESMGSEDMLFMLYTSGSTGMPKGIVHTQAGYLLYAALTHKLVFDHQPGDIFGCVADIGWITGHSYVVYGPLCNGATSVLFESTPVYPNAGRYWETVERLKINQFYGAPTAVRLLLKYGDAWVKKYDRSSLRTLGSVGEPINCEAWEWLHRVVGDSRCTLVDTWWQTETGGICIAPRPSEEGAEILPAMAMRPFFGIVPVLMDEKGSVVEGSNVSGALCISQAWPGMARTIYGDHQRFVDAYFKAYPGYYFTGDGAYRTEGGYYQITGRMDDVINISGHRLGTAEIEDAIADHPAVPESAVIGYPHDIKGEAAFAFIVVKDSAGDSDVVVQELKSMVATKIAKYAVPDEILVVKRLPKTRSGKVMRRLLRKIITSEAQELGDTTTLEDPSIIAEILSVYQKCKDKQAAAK
Description: All binding assays were performed on a ProteOn XPR36 SPR Protein Interaction Array System (Bio-Rad Laboratories, Hercules, CA, United States). The instrument temperature was set at 25°C for all kinetic analyses. ProteOn GLH sensor chips were preconditioned with two short pulses each (10 s) of 50 mM NaOH, 100 mM HCl, and 0.5% sodium […]. Then, the system was equilibrated with running buffer (1x PBS pH 7.4, 3% DMSO, and 0.005% polysorbate 20). The surface of a GLH sensor chip was activated with a 1:100 dilution of a 1:1 mixture of 1-ethyl-3-(3-dimethylaminopropyl) carbodiimide hydrochloride (0.2 M) and sulfo-N-hydroxysuccinimide (0.05 M). Immediately after chip activation, the human ACSS2 or hACSS1 proteins were prepared at a concentration of 10 μg/mL in 10 mM sodium acetate, pH 5.5, and injected across ligand flow channels for 5 min at a flow rate of 30 μL/min. Then, after unreacted protein had been washed out, excess active ester groups on the sensor surface were capped by a 5 min injection of 1M ethanolamine HCl (pH 8.0) at a flow rate of 5 μL/min. […] Data were analyzed using the ProteOn Manager Software version 3.0 (Bio-Rad). […]

MDR1 (P-gp) = experiment: Bi-directional permeability across MDR1-MDCK cell monolayer (BBB assay); type: in vitro ADME, canine; details: dog, MDR1-MDCK I monolayer
From the text: (§1) This assay provides the apparent permeability coefficient (Papp), efflux ratio, and % recovery to assess compound permeation.

MDR1-MDCK cells = experiment: as above; type: in vitro ADME, canine; details: MDR1-MDCK BBB assay
From the text: as §1

[1] = BBB permeability in vivo (LC-MS, brain over blood); parameters: species or system BalbC mice; details: mice, 50 mg/kg intraperitoneal, 30 min (AD-5584) or 1 h (AD-8007, VY-3-135)
Description: Human ACSS2 inhibitors were prepared in 10 mg/mL saline solution. BalbC 4–6 week-old mice were weighed and injected with 50 mg/kg or 100 mg/kg of drug saline solution via intraperitoneal injection. After 30 min or 60 min, mice treated with AD-5584 or AD-8007 and VY-3-135 were placed in isoflurane, and blood was extracted and perfused via intracardiac injection. Following perfusion, mice were decapitated, and their brains were rapidly removed into ice-cold PBS. For analysis of blood samples, 200 µL of blood was transferred and allowed to clot for 15 min at room temperature. Samples were precipitated at 16000xg for 1 min, and 50 µL of serum was transferred. To serum, 200 µL of methanol was added, and samples were centrifuged at 16000 g for 5 min. The supernatant was analyzed by LCMS. For analysis of brain samples, brains were homogenized via bead beating using four 2.3 mm stainless steel beads in 1 mL of MeOH and 0.5 mL of H2O. After centrifugation for 15 min at 3000xg, the supernatant was analyzed by LCMS. LCMS was performed on an Acquity I-Class UPLC system coupled to a Synapt G2Si HDMS mass spectrometer in positive ion mode with a heated electrospray ionization (ESI) source in a Z-spray configuration. […] Data was analyzed using Waters MassLynx and Waters Unifi. Calibration curves of authentic standards were used for quantification.

N[C@H](C(=O)N1CCCC(c2ccccc2)(c2ccccc2)C1)C1CC1 [AD-8007]
binding to hACSS1 (specificity) (hACSS1): specifically bind ACSS2 and not the mitochondrial isoform hACSS1 | Papp A→B (MDR1 (P-gp); A to B): 2.81 ×10⁻⁶ cm/s | Papp B→A (MDR1 (P-gp); B to A): 25.2 ×10⁻⁶ cm/s | efflux ratio (in words) (MDR1-MDCK cells): low efflux ratio | permeability (in words) (MDR1-MDCK cells): moderate permeability | level of drug in the brain over blood [1]: detected at significantly higher levels in the brain compared to VY-3-135
